Laboratory results published in patent US20220313774A1, “INTRANASAL ADMINISTRATION OF MEROTOCIN FOR IMPROVING LACTATION” (FERRING B.V., priority 2019, published 2022).
Read-outs that look alike come from different tables or passages of the source. *1 amine or outer side, *2 acyl side, *3 side chain or, on linkers, in order; H or OH if unused. Where a SMILES comes first, the peptide text is derived from it. Bridges are numbered along the chain shown (N, C = ends). [ ]: non-standard residue; d: D form. N(4-F-Bzl)Gly = O=C(O)CNCc1ccc(F)cc1; X1 = O=C(CCC[*:2])[*:1]

Legend:
[1] = Trial 000015 Part 2: pharmacokinetics after multiple intranasal administrations; type: in vivo, human; details: for Cmax / Tmax / AUC(0-t) / half-life: female, human, plasma
Text: The trial was divided into three parts:
Part 2. Ascending multiple i.n. doses.

early postpartum women = details: in vivo
Procedure: Healthy women received 5 or 20 μg merotocin i.v. shortly after delivery (Part A) or 20 μg merotocin i.v. when lactation was established (Part B). Milk was expressed by pumping at 15 minutes, 3 hours, 6 hours, 9 hours, 12 hours, 18 hours and 18-24 hours after start of infusion and analysed for merotocin and metabolites.

[2] = in vivo
healthy women [3] = details: in vivo
Procedure: The first clinical trial in human, Trial 000015, was a double-blind, placebo-controlled, single dose, within dose panel randomised, sequential dose escalating study. The trial was divided into three parts:
Part 1. Ascending single i.n. doses. There were 7 dose panels with 8 healthy women in each dose panel (6 active, 2 placebo). The doses investigated were 5 μg, 15 μg, 50 μg, 100 μg, 200 μg, 300 μg, and 400 μg.
Seven dose levels were investigated: 5, 15, 50, 100, 200, 300, and 400 μg. Each of the doses were administered as a nasal spray based on one or multiple puffs per nostril.
Part 3. Open-label cross-over single i.n. and single i.v. dose in 6 healthy women. The doses investigated were 20 μg as an i.v. infusion over 25 minutes, and 400 μg as a single i.n. dose.
The intranasal dose was 400 μg (4×140 μl, the same as the highest dose in Part 1), the i.v. dose was 20 μg infused in 2 mL over 25 minutes.

healthy women [4] = tested on: healthy women;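 for headache: subjects reporting: adverse events in healthy women given intranasal doses every 3 h over 45 h (16 doses per panel), each panel with 6 active and 2 placebo subjects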;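 for intensity of all TEAEs: adverse events in healthy women given intranasal doses every 3 h over 45 h (16 doses per panel), each panel with 6 active and 2 placebo subjects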;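 for withdrawal due to nausea: adverse events in healthy women given intranasal doses every 3 h over 45 h (16 doses per panel), each panel with 6 active and 2 placebo subjects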
Procedure: Part 2. Ascending multiple i.n. doses. There were 3 dose panels with 8 healthy women in each dose panel (6 active, 2 placebo). The dosing schedule was every 3 hours for 45 hours, i.e. 16 doses in all. The doses investigated were 50 μg, 200 μg, and 400 μg.
Three dose levels were investigated: the first dose was 50 μg, the second dose was 200 μg (intermediate between the first dose and the maximal tolerated dose in Part 1), and the highest dose was 400 μg (the maximal dose in Part 1).

[5] = 16 i.n. administrations over 48 hours

CC[C@H](C)[C@@H]1NC(=O)[C@H](Cc2ccc(O)cc2)NC(=O)CCCSC[C@@H](C(=O)N(CC(=O)N[C@@H](CC(C)C)C(=O)NCC(N)=O)Cc2ccc(F)cc2)NC(=O)[C@H](CC(N)=O)NC(=O)[C@H](CCC(N)=O)NC1=O [merotocin, Glycinamide, N-(4-mercapto-1-oxobutyl)-L-tyrosyl-L-isoleucyl-Lglutaminyl-L-asparaginyl-L-cysteinyl-N-[(4-fluorophenyl)methyl]glycyl-L-leucyl-, cyclic (1→5)-thioether] (YIQNC[N(4-F-Bzl)Gly]LG-NH2; linker N-5 via X1)
accumulation [1, 5]: no indications of relevant accumulation | pre-dose concentrations [1, 5]: falling constantly below the LLOQ | Cmax ([1]; inhaled or intranasal, 50 ug, multiple i.n. doses every 3 hours, 50 μg, Dose No. 1, read-out: Cmax Geom. mean (% CV)): 0.0275 ng/mL | Cmax ([1]; inhaled or intranasal, 50 ug, multiple i.n. doses every 3 hours, 50 μg, Dose No. 1, read-out: Cmax Median): 0.0307 ng/mL | Tmax ([1]; inhaled or intranasal, 50 ug, multiple i.n. doses every 3 hours, 50 μg, Dose No. 1, read-out: tmax Mean (SD)): 13.8 min | Cmax ([1]; inhaled or intranasal, 50 ug, multiple i.n. doses every 3 hours, 50 μg, Dose No. 2, read-out: Cmax Median): 0.0302 ng/mL | Cmax ([1]; inhaled or intranasal, 50 ug, multiple i.n. doses every 3 hours, 50 μg, Dose No. 16, read-out: Cmax Median): 0.0266 ng/mL | Tmax ([1]; inhaled or intranasal, 50 ug, multiple i.n. doses every 3 hours, 50 μg, Dose No. 16, read-out: tmax Mean (SD)): 20.4 min | AUC(0-t) ([1]; inhaled or intranasal, 200 ug, multiple i.n. doses every 3 hours, 200 μg, Dose No. 1, read-out: AUCt Geom. mean (% CV)): 0.0804 ng·h/mL | AUC(0-t) ([1]; inhaled or intranasal, 200 ug, multiple i.n. doses every 3 hours, 200 μg, Dose No. 1, read-out: AUCt Median): 0.0876 ng·h/mL | Cmax ([1]; inhaled or intranasal, 200 ug, multiple i.n. doses every 3 hours, 200 μg, Dose No. 1, read-out: Cmax Geom. mean (% CV)): 0.124 ng/mL | Cmax ([1]; inhaled or intranasal, 200 ug, multiple i.n. doses every 3 hours, 200 μg, Dose No. 1, read-out: Cmax Median): 0.125 ng/mL | Tmax ([1]; inhaled or intranasal, 200 ug, multiple i.n. doses every 3 hours, 200 μg, Dose No. 1, read-out: tmax Mean (SD)): 10.8 min | AUC(0-t) ([1]; inhaled or intranasal, 200 ug, multiple i.n. doses every 3 hours, 200 μg, Dose No. 2, read-out: AUCt Geom. mean (% CV)): 0.0752 ng·h/mL | AUC(0-t) ([1]; inhaled or intranasal, 200 ug, multiple i.n. doses every 3 hours, 200 μg, Dose No. 2, read-out: AUCt Median): 0.0706 ng·h/mL | Cmax ([1]; inhaled or intranasal, 200 ug, multiple i.n. doses every 3 hours, 200 μg, Dose No. 2, read-out: Cmax Geom. mean (% CV)): 0.115 ng/mL | Cmax ([1]; inhaled or intranasal, 200 ug, multiple i.n. doses every 3 hours, 200 μg, Dose No. 2, read-out: Cmax Median): 0.118 ng/mL | half-life ([1]; inhaled or intranasal, 200 ug, multiple i.n. doses every 3 hours, 200 μg, Dose No. 2, read-out: t1/2 Harmonic mean (converted)): 26.4 min | Tmax ([1]; inhaled or intranasal, 200 ug, multiple i.n. doses every 3 hours, 200 μg, Dose No. 2, read-out: tmax Mean (SD)): 16.8 min | AUC(0-t) ([1]; inhaled or intranasal, 200 ug, multiple i.n. doses every 3 hours, 200 μg, Dose No. 16, read-out: AUCt Geom. mean (% CV)): 0.16 ng·h/mL | AUC(0-t) ([1]; inhaled or intranasal, 200 ug, multiple i.n. doses every 3 hours, 200 μg, Dose No. 16, read-out: AUCt Median): 0.147 ng·h/mL | Cmax ([1]; inhaled or intranasal, 200 ug, multiple i.n. doses every 3 hours, 200 μg, Dose No. 16, read-out: Cmax Geom. mean (% CV)): 0.218 ng/mL | Cmax ([1]; inhaled or intranasal, 200 ug, multiple i.n. doses every 3 hours, 200 μg, Dose No. 16, read-out: Cmax Median): 0.225 ng/mL | half-life ([1]; inhaled or intranasal, 200 ug, multiple i.n. doses every 3 hours, 200 μg, Dose No. 16, read-out: t1/2 Harmonic mean (converted)): 30.6 min | Tmax ([1]; inhaled or intranasal, 200 ug, multiple i.n. doses every 3 hours, 200 μg, Dose No. 16, read-out: tmax Mean (SD)): 18.6 min | AUC(0-t) ([1]; inhaled or intranasal, 400 ug, multiple i.n. doses every 3 hours, 400 μg, Dose No. 1, read-out: AUCt Geom. mean (% CV)): 0.0771 ng·h/mL | AUC(0-t) ([1]; inhaled or intranasal, 400 ug, multiple i.n. doses every 3 hours, 400 μg, Dose No. 1, read-out: AUCt Median): 0.0702 ng·h/mL | Cmax ([1]; inhaled or intranasal, 400 ug, multiple i.n. doses every 3 hours, 400 μg, Dose No. 1, read-out: Cmax Geom. mean (% CV)): 0.156 ng/mL | Cmax ([1]; inhaled or intranasal, 400 ug, multiple i.n. doses every 3 hours, 400 μg, Dose No. 1, read-out: Cmax Median): 0.136 ng/mL | half-life ([1]; inhaled or intranasal, 400 ug, multiple i.n. doses every 3 hours, 400 μg, Dose No. 1, read-out: t1/2 Harmonic mean (converted)): 21 min | AUC(0-t) ([1]; inhaled or intranasal, 400 ug, multiple i.n. doses every 3 hours, 400 μg, Dose No. 2, read-out: AUCt Geom. mean (% CV)): 0.0888 ng·h/mL | AUC(0-t) ([1]; inhaled or intranasal, 400 ug, multiple i.n. doses every 3 hours, 400 μg, Dose No. 2, read-out: AUCt Median): 0.142 ng·h/mL | Cmax ([1]; inhaled or intranasal, 400 ug, multiple i.n. doses every 3 hours, 400 μg, Dose No. 2, read-out: Cmax Geom. mean (% CV)): 0.169 ng/mL | Cmax ([1]; inhaled or intranasal, 400 ug, multiple i.n. doses every 3 hours, 400 μg, Dose No. 2, read-out: Cmax Median): 0.195 ng/mL | half-life ([1]; inhaled or intranasal, 400 ug, multiple i.n. doses every 3 hours, 400 μg, Dose No. 2, read-out: t1/2 Harmonic mean (converted)): 23.4 min | Tmax ([1]; inhaled or intranasal, 400 ug, multiple i.n. doses every 3 hours, 400 μg, Dose No. 2, read-out: tmax Mean (SD)): 9.6 min | Cmax ([1]; inhaled or intranasal, 400 ug, multiple i.n. doses every 3 hours, 400 μg, Dose No. 16, read-out: Cmax Geom. mean (% CV)): 0.18 ng/mL | Cmax ([1]; inhaled or intranasal, 400 ug, multiple i.n. doses every 3 hours, 400 μg, Dose No. 16, read-out: Cmax Median): 0.192 ng/mL | half-life ([1]; inhaled or intranasal, 400 ug, multiple i.n. doses every 3 hours, 400 μg, Dose No. 16, read-out: t1/2 Median (converted)): 39 min | Tmax ([1]; inhaled or intranasal, 400 ug, multiple i.n. doses every 3 hours, 400 μg, Dose No. 16, read-out: tmax Mean (SD)): 18 min | Tmax ([1]; other: intranasal, 50 ug, multiple i.n. doses every 3 hours, 50 μg, Dose No. 2, read-out: tmax Mean (SD)): 20.4 min | Cmax ([1]; other: intranasal, 50 ug, multiple i.n. doses every 3 hours, 50 μg, Dose No. 16, read-out: Cmax Geom. mean (% CV)): 0.0236 ng/mL | Tmax ([1]; other: intranasal, 400 ug, multiple i.n. doses every 3 hours, 400 μg, Dose No. 1, read-out: tmax Mean (SD)): 6.6 min | AUC(0-t) ([1]; other: intranasal, 400 ug, multiple i.n. doses every 3 hours, 400 μg, Dose No. 16, read-out: AUCt Geom. mean (% CV)): 0.112 ng·h/mL | AUC(0-t) ([1]; other: intranasal, 400 ug, multiple i.n. doses every 3 hours, 400 μg, Dose No. 16, read-out: AUCt Median): 0.112 ng·h/mL | half-life ([1]; other: intranasal, 400 ug, multiple i.n. doses every 3 hours, 400 μg, Dose No. 16, read-out: t1/2 Harmonic mean (converted)): 33.6 min | half-life ([1]; other: intranasal, multiple i.n. doses, all dose groups, read-out: t1/2): 25 to 35 min | Tmax ([1]; other: intranasal, multiple i.n. doses, all dose groups, read-out: tmax): 12 to 15 min | Any AE: number of AEs, E (early postpartum women): 16 | Any AE: subjects with AE, n (%) (early postpartum women): 8 (44) | Back pain: number of AEs, E (early postpartum women): 1 | Back pain: subjects with AE, n (%) (early postpartum women): 1 (6) | Breast engorgement: number of AEs, E (early postpartum women): 3 | Breast engorgement: subjects with AE, n (%) (early postpartum women): 3 (17) | Headache: number of AEs, E (early postpartum women): 3 | Headache: subjects with AE, n (%) (early postpartum women): 2 (11) | Lactation puerperal increased: number of AEs, E (early postpartum women): 1 | Lactation puerperal increased: subjects with AE, n (%) (early postpartum women): 1 (6) | Muscle spasms: number of AEs, E (early postpartum women): 1 | Muscle spasms: subjects with AE, n (%) (early postpartum women): 1 (6) | Uterine spasm: number of AEs, E (early postpartum women): 7 | Uterine spasm: subjects with AE, n (%) (early postpartum women): 6 (33) | safety (key results) (early postpartum women): No safety | severe or serious AE (early postpartum women; iv): No severe or serious AE occurred | metabolites of merotocin in plasma or urine samples [2]: No metabolites of merotocin could be detected | Dry mouth: subjects reporting (healthy women [3]): 3 subjects | intensity of all adverse events (healthy women [3]): mild | safety (key results) (healthy women [3]): No safety | withdrawal due to nausea (healthy women [4]; 400 μg group, multiple doses): One subject was withdrawn | dry mouth: subjects reporting (healthy women [4]; 200 and 400 μg groups, multiple doses): 5 subjects | intensity of all TEAEs (healthy women [4]; after multiple dose administrations): mild | headache: subjects reporting (healthy women [4]; all treatment groups, multiple doses): 4 subjects
